Test system: MCF-7
Assay: CellTiter-Glo cell proliferation inhibition, MCF-7 (Effect Example 2)
Type: cell-based
Conditions: Homo sapiens, MCF7, 144 h, MCF-7 (CTG), 6 days, starting concentration 10 μM; for inhibition at up to 10 µM: read-out: IH % max (maximum inhibition percentage)
Outline: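 MCF-7, TamR-MCF-7, and CRISPR-edited MCF-7 ER D538G or Y537S cells were seeded at 1,000 or 2,000 cells/well in EMEM and cultured 24 h. They were then exposed to a 4-fold, 10-point series (top 10 µM before addition to wells) for 6 days or 72 h at 37 °C. CellTiter-Glo luminescence gave IC50 and maximum % inhibition.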

IC50 | Structure (SMILES) | inhibition at up to 10 µM
 | CCN(CCOc1ccc(Oc2c(-c3ccc(S(C)(=O)=O)cc3)ccc3cc(O)ccc23)cc1)CC(=O)N1CCN(c2ccc3c(c2)C(=O)N(C2CCC(=O)NC2=O)C3=O)CC1 (stereo not drawn) [Compound D8, 2-(2,6-dioxopiperidin-3-yl)-5-(4-(N-ethyl-N-(2-(4-((6-hydroxy-2-(4-(methylsulfonyl)phenyl)naphthalen-1-yl)oxy)phenoxy)ethyl)glycyl)piperazin-1-yl)isoindoline-1,3-dione] | 56%
541 nM | CS(=O)(=O)c1ccc(-c2ccc3cc(O)ccc3c2Oc2ccc(OCCOCCOCCN3CCN(c4ccc5c(c4)CN(C4CCC(=O)NC4=O)C5=O)CC3)cc2)cc1 (stereo not drawn) [Compound D30] | 55%
486 nM | C[C@@H]1CN(CCOCC(=O)N2CCN(c3ccc4c(c3)C(=O)N(C3CCC(=O)NC3=O)C4=O)CC2)[C@@H](C)CN1CCOc1ccc(Oc2c(-c3ccc(S(C)(=O)=O)cc3)ccc3cc(O)ccc23)cc1 (stereo partly drawn) [Compound D15, 2-(2,6-dioxopiperidin-3-yl)-5-(4-(2-(2-((2S,5R)-4-(2-(4-((6-hydroxy-2-(4-(methylsulfonyl)phenyl)naphthalen-1-yl)oxy)phenoxy)ethyl)-2,5-dimethylpiperazin-1-yl)ethoxy)acetyl)piperazin-1-yl)isoindoline-1,3-dione] | 51%
 | CS(=O)(=O)c1ccc(-c2ccc3cc(O)ccc3c2Oc2ccc(OCCOCCOCCN3CCN(c4ccc5c(c4)C(=O)N(C4CCC(=O)NC4=O)C5)CC3)cc2)cc1 (stereo not drawn) [Compound D22, 3-(6-(4-(2-(2-(2-(4-((6-hydroxy-2-(4-(methylsulfonyl)phenyl)naphthalen-1-yl)oxy)phenoxy)ethoxy)ethoxy)ethyl)piperazin-1-yl)-1-oxoisoindolin-2-yl)piperidine-2,6-dione] | 38%
216 nM | CCN(CCOCCOCCN1CCN(c2ccc3c(c2)C(=O)N(C2CCC(=O)NC2=O)C3=O)CC1)CCOc1ccc(Oc2c(-c3ccc(S(C)(=O)=O)cc3)ccc3cc(O)ccc23)cc1 (stereo not drawn) [Compound D28, 2-(2,6-dioxopiperidin-3-yl)-5-(4-(2-(2-(2-(ethyl(2-(4-((6-hydroxy-2-(4-(methylsulfonyl)phenyl)naphthalen-1-yl)oxy)phenoxy)ethyl)amino)ethoxy)ethoxy)ethyl)piperazin-1-yl)isoindoline-1,3-dione] | 53%
 | CS(=O)(=O)c1ccc(-c2ccc3cc(O)ccc3c2Oc2ccc(OCCOCCOCCOCCOc3ccc4c(c3)C(=O)N(C3CCC(=O)NC3=O)C4)cc2)cc1 (stereo not drawn) [Compound D35, 3-(6-(2-(2-(2-(2-(4-((6-hydroxy-2-(4-(methylsulfonyl)phenyl)naphthalen-1-yl)oxy)phenoxy)ethoxy)ethoxy)ethoxy)ethoxy)-1-oxoisoindolin-2-yl)piperidine-2,6-dione] | 45%
 | CS(=O)(=O)c1ccc(-c2ccc3cc(O)ccc3c2Oc2ccc(OCCOCCOCCOCCN3CCN(c4ccc5c(c4)C(=O)N(C4CCC(=O)NC4=O)C5)CC3)cc2)cc1 (stereo not drawn) [Compound D21] | 44%
238 nM | C[C@@H]1CN(CCOc2ccc(Oc3c(-c4ccc(S(C)(=O)=O)cc4)ccc4cc(O)ccc34)cc2)[C@@H](C)CN1CCOCC(=O)N1CCN(c2ccc3c(c2)CN(C2CCC(=O)NC2=O)C3=O)CC1 (stereo partly drawn) [Compound D9, 3-(5-(4-(2-(2-((2R,5S)-4-(2-(4-((6-hydroxy-2-(4-(methylsulfonyl)phenyl)naphthalen-1-yl)oxy)phenoxy)ethyl)-2,5-dimethylpiperazin-1-yl)ethoxy)acetyl)piperazin-1-yl)-1-oxoisoindolin-2-yl)piperidine-2,6-dione] | 60%
 | CCN(CCCCCN(C)CC(=O)N1CCN(c2ccc3c(c2)C(=O)N(C2CCC(=O)NC2=O)C3=O)CC1)CCOc1ccc(Oc2c(-c3ccc(S(C)(=O)=O)cc3)ccc3cc(O)ccc23)cc1 (stereo not drawn) [Compound D31, 2-(2,6-dioxopiperidin-3-yl)-5-(4-(N-(5-(ethyl(2-(4-((6-hydroxy-2-(4-(methylsulfonyl))phenyl)naphthalen-1-yl)oxy)phenoxy)ethyl)aminopentyl)-N-methylglycyl)piperazin-1-yl)isoindoline-1,3-dione] | 32%
69.8 nM | CCN(CCOc1ccc(Oc2c(-c3ccc(S(C)(=O)=O)cc3)ccc3cc(O)ccc23)cc1)C(=O)c1ccc(CCC2CCN(C3CCN(c4ccc5c(c4)C(=O)N(C4CCC(=O)NC4=O)C5=O)CC3)CC2)cc1 (stereo not drawn) [Compound D34, 4-(2-(1′-(2-(2,6-dioxopiperidin-3-yl)-1,3-dioxoisoindolin-5-yl)-[1,4′-bipiperidin]-4-yl)ethyl)-N-ethyl-N-(2-(4-((6-hydroxy-2-(4-(methylsulfonyl)phenyl)naphthalen-1-yl)oxy)phenoxy)ethyl)benzamide] | 52%
 | CS(=O)(=O)c1ccc(-c2ccc3cc(O)ccc3c2Oc2ccc(N3CCN(CCCCCOCC(=O)N4CCN(c5ccc6c(c5)CN(C5CCC(=O)NC5=O)C6=O)CC4)CC3)cc2)cc1 (stereo not drawn) [Compound D11, 3-(5-(4-(2-((5-(4-(4-((6-hydroxy-2-(4-(methylsulfonyl)phenyl)naphthalen-1-yl)oxy)phenyl)piperazin-1-yl)pentyl)oxy)acetyl)piperazin-1-yl)-1-oxoisoindolin-2-yl)piperidine-2,6-dione] | 45%
 | CS(=O)(=O)c1ccc(-c2ccc3cc(O)ccc3c2Oc2ccc(OCCCCN3CCN(c4ccc5c(c4)CN(C4CCC(=O)NC4=O)C5=O)CC3)cc2)cc1 (stereo not drawn) [Compound D59, 3-(5-(4-(4-(4-((6-hydroxy-2-(4-(methylsulfonyl)phenyl)naphthalen-1-yl)oxy)phenoxy)butyl)piperazin-1-yl)-1-oxoisoindolin-2-yl)piperidine-2,6-dione] | 37%
 | CS(=O)(=O)c1ccc(-c2ccc3cc(O)ccc3c2Oc2ccc(OCCOCCOCCOCCN3CCN(c4ccc5c(c4)C(=O)N(C4CCC(=O)NC4=O)C5=O)CC3)cc2)cc1 (stereo not drawn) [Compound D19] | 44%
